Among the data in US20250019387A1 (Frontier Medicines Corporation, priority 0001, published 2025) are IC50 values, retold here.

As usually defined, the IC50 is the concentration that inhibits the measured activity by half.

Each structure is given as a SMILES string.

Assay [1] has as its target KRAS G12C and cRAF (Ras-binding domain) interaction (Homo sapiens (Human), UniProt P01116, C118S/C51S/C80L/G12C). The experiment in a line: Inhibition of KRAS G12C and cRAF binding (AlphaScreen). Particulars: GMPPNP-loaded KRAS G12C, 19-20 hours incubation with compound; read-out: IC50 (Inhibition of KRAS G12C and cRAF Binding). In a few lines:
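IC50 values come from 4-parameter nonlinear regression of AlphaScreen signal (680 nm excitation, 570 nm emission). Compound plates sat 19-20 h at room temperature before RBD and donor/acceptor beads were added in Hepes pH 7.4 buffer with 150 mM NaCl, 5 mM MgCl2, 2% DMSO for 60-90 min; biotin-AviTag-GST replaced RBD to flag assay-technology interferers.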
A general note: Bead proximity is the source of the signal in Alpha formats.

The target of assay [2] is KRAS G12C and PI3Ka (Ras-binding domain) interaction (Homo sapiens (Human), UniProt P01116, C118S/C51S/C80L/G12C). The experiment in a line: Inhibition of KRAS G12C and PI3Ka binding (AlphaScreen). As to conditions: GMPPNP-loaded KRAS G12C, 2 hours incubation with compound; read-out: PI3Ka RBD IC50. How it is done:
Compounds were diluted in 100% DMSO and each compound concentration was spotted at 200 nl/well onto low volume, white 384 well plates. […] The KRAS GT2C was diluted in 25 mM Hepes, pH 7.4, 150 mM NaCl, 5 mMv MgCl2, 0.0100 TritonX-100 and 10 μM GMPPNP and added at 10 ul/well to compound-spotted plates resulting in a […] concentration of 2%. Plates were incubated for 2 hours. A mixture of RBD and the AlphaScreen streptavidin donor and nickel chelate acceptor beads diluted in 25 mMv Hepes, pH 7.4, 150 mMv NaCl, 5 mM MgCl2, 0.0100 TritonX-100 and 2% DMSO was then added at 10 ul/well and incubated for 60-90 minutes before the samples were read for emission at 570 nm after excitation of the donor beads at 680 nm. All incubations were performed at room temperature. […] Final assay conditions were 1.5 nM KRAS GT2C, 100 nM RBD, 1.25 ug/ml of AlphaScreen donor beads and 10 μg/ml AlphaLISA acceptor beads. IC50S were determined using nonlinear regression fit of [inhibitor]vs. response (4 parameters). […]

Chain of KRAS G12C and cRAF (Ras-binding domain) interaction (P01116 other isoform, or with tags, fused parts or gaps G12C/C51S/C80L/C118S): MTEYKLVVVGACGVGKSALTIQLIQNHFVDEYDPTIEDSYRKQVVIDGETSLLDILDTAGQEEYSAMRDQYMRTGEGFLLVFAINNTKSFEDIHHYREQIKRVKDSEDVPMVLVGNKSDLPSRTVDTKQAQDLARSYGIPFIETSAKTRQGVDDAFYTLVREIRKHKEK
Chain of KRAS G12C and PI3Ka (Ras-binding domain) interaction (P01116 other isoform, or with tags, fused parts or gaps G12C/C51S/C80L/C118S): as above

As to `CN1C[C@@H](O)C[C@@H]1C#CC(=O)N1CC[C@@H](N(C)c2nc(OC[C@@]34CCCN3C[C@H](F)C4)nc3c(F)c(-c4cccc5cccc(Cl)c45)ncc23)C1` [Example 248, 1-((R)-3-((7-(8-chloronaphthalen-1-yl)-8-fluoro-2-(((2R,7aS)-2-fluorohexahydro-1H-pyrrolizin-7a-yl)methoxy)pyrido[4,3-d]pyrimidin-4-yl)(methyl)amino)pyrrolidin-1-yl)-3-((2R,4S)-4-hydroxy-1-methylpyrrolidin-2-yl)prop-2-yn-1-one], the half-inhibitory concentration (IC50) in assay [1] and in assay [2] was 10 to 100 nM in each case.

Take `C=CC(=O)N1CC[C@@H](N(C)c2nc(OC[C@@]34CCCN3C[C@H](F)C4)nc3c(F)c(-c4cccc5cccc(F)c45)ncc23)C1` [Example 258, 1-((R)-3-((8-fluoro-7-(8-fluoronaphthalen-1-yl)-2-(((2R,7aS)-2-fluorotetrahydro-1H-pyrrolizin-7a(5H)-yl)methoxy)pyrido[4,3-d]pyrimidin-4-yl)(methyl)amino)pyrrolidin-1-yl)prop-2-en-1-one]: the IC50 in assay [1] and in assay [2] was 10 to 100 nM in each case.

Regarding `C=CC(=O)N1CC[C@@H](N(C)c2nc(OCC34CCCN3CCC4)nc3c(F)c(-c4cccc5cccc(F)c45)ncc23)C1` [Example 259, (R)-1-(3-((8-fluoro-7-(8-fluoronaphthalen-1-yl)-2-((tetrahydro-1H-pyrrolizin-7a(5H)-yl)methoxy)pyrido[4,3-d]pyrimidin-4-yl)(methyl)amino)pyrrolidin-1-yl)prop-2-en-1-one], the IC50 in assay [1] fell in the range of 100 to 500 nM; in assay [2], 10 to 100 nM.
